Results from article PMC6272176, “Antileishmanial and Cytotoxic Compounds from Valeriana wallichii and Identification of a Novel Nepetolactone Derivative” (Molecules, 2015).
Read-outs that look alike come from different tables or passages of the source.

Assays:
L. major promastigotes = assay: Antileishmanial activity against L. major promastigotes, AlamarBlue assay; type: cell-based, Leishmania major; details: for IC50: Leishmania major, read-out: IC50 (L. major); for antileishmanial activity (in words): verbal rating
Experimental: (§1) All compounds isolated were subjected to the evaluation of their antileishmanial activity against L. major promastigotes in vitro and cytotoxicity against macrophages (J774.1 murine cell line) using the corresponding AlamarBlue^© assays (cf. Table 2).
(§2) Antileishmanial activity against L. major promastigotes and cytotoxicity against a murine macrophage cell line (J774.1) was determined using an AlamarBlue^© assay. Methods for both procedures have been reported previously. IC50 values are presented as mean values of two experiments.

[1] = system: J774.1 murine macrophage cell line; assay: Cytotoxicity against macrophages (J774.1), AlamarBlue assay; type: cell-based; details: for IC50: Mus musculus; for cytotoxicity (in words): verbal rating
Experimental: as §1, §2

[2] = L. major promastigotes in vitro, fractions containing isolated compounds, mean of two experiments
[3] = J774.1 macrophages, fractions containing isolated compounds, mean of two experiments, read-out: IC50 (J774.1)
[4] = L. major promastigotes in vitro
[5] = J774.1 macrophages, fractions containing isolated compounds, mean of two experiments
[6] = L. major promastigotes in vitro, values marked *: pure or synthesized compounds, given in µM, mean of two experiments
[7] = J774.1 macrophages, values marked *: pure or synthesized compounds, given in µM, mean of two experiments, read-out: IC50 (J774.1)

Row | Compound | IC50 (L. major promastigotes; [2]) [µg/mL] | IC50 [1, 3] [µg/mL] | antileishmanial activity (in words) (L. major promastigotes; [4]) | further results
1 | COc1cc(C2c3cc4c(cc3C(O)C3COC(=O)C23)OCO4)cc(OC)c1O (stereo not drawn) [compound 15, 4'-demethylpodophyllotoxin] | – | – | no antileishmanial activity | IC50 (L. major) (L. major promastigotes; [2]): >100 µg/mL; IC50 (J774.1) [1, 5]: <0.8 µg/mL
2 | COc1ccc(C=CC(=O)OC2CC3CCC2(C)C3(C)C)cc1O (stereo not drawn) [compound 2, bornyl isoferulate] | 16.7 | 34.7 | moderate antileishmanial activity | –
3 | COc1cc([C@@H]2c3cc4c(cc3[C@H](O)[C@H]3COC(=O)[C@H]23)OCO4)cc(OC)c1OC [compound 16, podophyllotoxin] | – | – | no antileishmanial activity | IC50 (L. major promastigotes): > 100 µg/mL; IC50 ([1]; J774.1, read-out: IC50 (J774.1)): < 0.8 µg/mL
4 | CC(=O)OCC1=COC(OC(=O)CC(C)C)C2C1=CC(OC(=O)CC(C)C)C2(O)COC(=O)CC(C)C (stereo not drawn) [compound 8] | – | – | – | IC50 (L. major promastigotes; [6]): 1.7 µM; IC50 [1, 7]: 1 µM
5 | C[C@@H]1CC[C@H]2[C@H](CO)COC(=O)[C@H]21 [compound 5, (4R,5S,8R,9S)-4-(Hydroxymethyl)-8-methylhexahydro-cyclopenta[c]pyranone] | > 100 | 17.5 | – | –
6 | CC(C)CC(=O)OC1CC2CCC1(C)C2(C)C (stereo not drawn) [Bornyl isovalerate (13), bornyl isovalerate] | – | – | no antileishmanial activity | IC50 (L. major promastigotes; [6]): > 100 µM; IC50 [1, 7]: > 100 µM
7 | pinoresinol [Pinoresinol (17)] | – | – | no antileishmanial activity | IC50 (L. major) (L. major promastigotes; [2]): >100 µg/mL; IC50 (J774.1) [1, 5]: <0.8 µg/mL
8 | CC1(C)C2CCC1(C)C(OC(=O)C=Cc1ccc(O)c(O)c1)C2 (stereo not drawn) [Bornyl caffeate (1), bornyl caffeate] | – | – | moderate antileishmanial activity | IC50 (L. major promastigotes; [6]): 48.8 µM; IC50 [1, 7]: 8.3 µM
9 | CC(=O)OC1CC2C(COC(=O)CC(C)C)=COC(OC(=O)CC(C)C)C2C1(O)CCl (stereo not drawn) [compound 9, valechlorine] | 2.3 | 1.9 | – | –
10 | CCCCCCCCCCCCCCCCOP(=O)([O-])OCC[N+](C)(C)C [Miltefosine, reference compound] | – | – | – | IC50 [1, 7]: 56.5 µM

Now from value to compound, other results behind:

Row | IC50 (L. major promastigotes; [2]) [µg/mL] | Compound | IC50 [1, 3] [µg/mL] | antileishmanial activity (in words) (L. major promastigotes; [4]) | further results
11 | 0.8 | CC(=O)OC1CC2C(COC(=O)CC(C)C)=COC(OC(=O)CC(C)C)C2C1(O)COC(=O)CC(C)C (stereo not drawn) [compound 7] | < 0.8 | – | –
12 | > 100 | CC1CCC2(OC3OC(CO)C(O)C(O)C3O)C1C(=O)OC2(C)COC(=O)C=Cc1ccc(O)cc1 [compound 4, {[(3S,4S,7R,8S)-1-Oxo-3,7-dimethyl-4-(O-β-D-glucopyranosyl)oxy]hexahydrocyclopenta[c]furan-3-yl}-methyl-trans-4-hydroxycinnamate] | > 100 | – | –
13 | 52.2 | CC(C)=CCCC(C)C1(O)CC=C(C)CC1 (stereo not drawn) [β-Bisabolol (10), β-bisabolol] | 37.1 | moderate | cytotoxicity (in words) ([1]; J774.1 macrophages): moderate
14 | 5.8 | CC1CC(O)C2C1CC1CCC2(C)OC1(C)C (stereo not drawn) [α-Kessyl alcohol (11), α-kessyl alcohol] | 1.7 | rather good antileishmanial activity | –
15 | 60.8 | CC(C)C1CCC2(C)CCCC(=O)C2(C)C1 (stereo not drawn) [Valeranone (12), valeranone] | 42.6 | moderate | cytotoxicity (in words) ([1]; J774.1 macrophages): moderate
16 | 1.9 | CCC(C)CC(=O)OC1OC=C(COC(=O)CC(C)C)C2CC(OC(C)=O)C(O)(COC(=O)C(OC(=O)CC(C)C)C(C)C)C12 (stereo not drawn) [compound 6] | < 0.8 | – | –
